Source: patent US10016382B2, “Method for decreasing skeletal muscle damage and/or oxidative stress in mammals” (LONZA INC., priority 2014, dated 2018)
Values joined by “and” are separate entries in the source; they are usually repeats but may differ in a detail not shown here. Identical values can stand only once.

What was measured:
[1] = Daily food consumption, Example 1; type: in vivo, dog; conditions: Ex.1, 250 mg/d; for Daily Food Intake: mean ± SEM
Protocol: Experimental Design: Forty Labrador Retrievers (labs) ranging in age from 1 to 3.5 years were incorporated into a two dietary treatment study. The two dietary treatments were based on feeding the test dogs the same low L-carnitine diet but adding 250 mg per day of L-carnitine to the L-carnitine group. Each of the L-carnitine dogs received the daily 250 mg of L-carnitine mixed with an additional 3.75 g sugar. The control dogs received 4 g of sugar each day. Twenty labs of equal gender, age, excitement level, frame size, body weight and genetic background were utilized for each of the two treatments. The labs utilized for the nutrition study were from a minimum of 6 different bitches. The lean body mass of the 40 test dogs was determined by scanning with the DEXA and the final key component utilized to assure equal groups. Prior to the start of the study, the labs were acclimated to the experimental diets for a minimum of 10 days. The labs were weighed at the beginning of the 90 day study and weighed every two weeks throughout the study. Feed consumption was determined daily by weighing feed provided and feed refusals. The quantity of food provided each dog on a daily basis was adjusted based on maintaining a minimum initial starting body weight throughout the study. The dog food was provided by Lonza Inc. and was equal to the minimum guaranteed analysis of Gold N Pro (MFA of Missouri) that the performance dogs had been consuming prior to the start of the study (Table 1).

canine myoglobin = experiment: Serum canine myoglobin ELISA (muscle damage biomarker), Example 1; type: in vivo, dog; conditions: for Change in Myoglobin, post-run minus pre-run: following 15 mile long run at 13 wk, mean ± SEM
Protocol: Blood Analysis: Serum samples were taken at three different times from each dog during the 90 day period. The blood samples were collected as follows: 1.) just prior to scanning each dog for body composition at the beginning of the study, 2.) prior to the long run on the 13th week, and 3.) following the long run on the 13th week. The serum samples were analyzed for Phosphocreatine Kinase and Canine Myoglobin to determine the amount of muscle protein leakage that occurred following the long run and TBARS and Total Antioxidant Capacity (TAC) were determined to evaluate the antioxidant status of each of the test dogs during the exercise program. The final blood sample was taken 24 hr after the long run to obtain maximum protein leakage based on previous similar types of exercise research with human athletes. Biomarkers and Assay Methods: Blood was drawn from each dog using a serum separator tube at three different times during the 90 day period: 1.) just prior to scanning each dog for body composition at the beginning of the study, 2.) prior to the long run on the 13th week, and 3.) following the long run on the 13th week. The final blood sample was taken 24 hr after the long run to obtain maximum protein leakage based on previous similar types of exercise research with human athletes. Each time after the blood was drawn it was allowed to clot before being centrifuged for 15 min at 2000 g at 4° C. Serum was aliquoted into 1.5 mL microcentrifuge tubes and stored at −80° C. until assays were ran following the end of the study. Creatine kinase (CK) and canine myoglobin were measured to determine the amount of muscle protein leakage that occurred following the long run. Thiobarbituric acid reactive substances (TBARS) and total antioxidant capacity (TAC) were measured to evaluate the antioxidant status of each of the test dogs during the exercise program. Serum samples were analyzed for total antioxidant capacity (TAC) and thiobarbituric acid reactive substances (TBARS) using commercially available colorimetric kits supplied by Cayman Chemical Company (Ann Arbor, Mich.) per manufacturer instructions. Serum canine myoglobin levels were determined using a commercially available ELISA supplied by Innovate Research (Novi, Mich.) per manufacturer instructions. Creatine kinase activity was determined colorimetrically using a commercially available kit supplied by BioVision (San Francisco, Calif.).

## C[N+](C)(C)C[C@H](O)CC(=O)[O-] [L-carnitine]
[1]; Week 2
  Daily Food Intake: 723 ± 26 n = 20 g
[1]; Week 4
  Daily Food Intake: 636 ± 30 n = 20 g
[1]; Week 5
  Daily Food Intake: 639 ± 27 n = 20 g
[1]; Week 6
  Daily Food Intake: 651 ± 26 n = 20 g
[1]; Week 7
  Daily Food Intake: 626 ± 24 n = 20 g
[1]; Week 8
  Daily Food Intake: 626 ± 24 n = 20 g
[1]; Week 9
  Daily Food Intake: 622 ± 26 n = 20 g
[1]; Week 10
  Daily Food Intake: 570 ± 25 n = 20 g
[1]; Week 11
  Daily Food Intake: 577 ± 24 n = 20 g
[1]; Week 13
  Daily Food Intake: 555 ± 20 n = 20 g
[1]; over the entire 13 wk period
  Food consumption vs control: not significantly different
[1]; overall Average of 13 wk study
  Daily Food Intake: 626 g and 626 ± 24 n = 20 g
Canine myoglobin; Baseline
  Myoglobin Least Sq Mean: 10.1 ng/mL
Canine myoglobin; Baseline, F
  Myoglobin Least Sq Mean: 14.77 ng/mL
Canine myoglobin; Baseline, M
  Myoglobin Least Sq Mean: 5.43 ng/mL
Canine myoglobin; Ex.1, 250 mg/d, Baseline, both sexes
  Myoglobin, serum, Mean: 10.0 ng/mL
Canine myoglobin; Ex.1, 250 mg/d, Baseline, females
  Myoglobin, serum, Mean: 17.6 ng/mL
Canine myoglobin; Ex.1, 250 mg/d, Baseline, males
  Myoglobin, serum, Mean: 5.8 ng/mL
Canine myoglobin; Ex.1, 250 mg/d, Post-run, both sexes
  Myoglobin, serum, Mean: 19.2 ng/mL
Canine myoglobin; Ex.1, 250 mg/d, Post-run, females
  Myoglobin, serum, Mean: 24.5 ng/mL
Canine myoglobin; Ex.1, 250 mg/d, Post-run, males
  Myoglobin, serum, Mean: 14.9 ng/mL
Canine myoglobin; Ex.1, 250 mg/d, Pre-run, both sexes
  Myoglobin, serum, Mean: 9.0 ng/mL
Canine myoglobin; Ex.1, 250 mg/d, Pre-run, females
  Myoglobin, serum, Mean: 8.4 ng/mL
Canine myoglobin; Ex.1, 250 mg/d, Pre-run, males
  Myoglobin, serum, Mean: 9.3 ng/mL
Canine myoglobin; Ex.1, 250 mg/d, females
  Change in Myoglobin, post-run minus pre-run: 6.11 ± 3.51 n = 6 ng/mL
Canine myoglobin; Ex.1, 250 mg/d, males
  Change in Myoglobin, post-run minus pre-run: 7.04 ± 3.9 n = 10 ng/mL
Canine myoglobin; Ex.1, 250 mg/d, post-run, summary text value, control 30.97
  Serum myoglobin values after exercise: 19.67 ng/mL
Canine myoglobin; Post-run
  Myoglobin Least Sq Mean: 19.67 ng/mL
Canine myoglobin; Post-run, F
  Myoglobin Least Sq Mean: 24.46 ng/mL
Canine myoglobin; Post-run, M
  Myoglobin Least Sq Mean: 14.88 ng/mL
Canine myoglobin; Pre-run
  Myoglobin Least Sq Mean: 10.01 ng/mL
Canine myoglobin; Pre-run, F
  Myoglobin Least Sq Mean: 11.06 ng/mL
Canine myoglobin; Pre-run, M
  Myoglobin Least Sq Mean: 8.96 ng/mL
Canine myoglobin; Treatment * Sex, F
  Myoglobin Least Sq Mean: 14.77 ng/mL
Canine myoglobin; Treatment * Sex, M
  Myoglobin Least Sq Mean: 5.43 ng/mL
Canine myoglobin; Treatment level, all dogs
  Myoglobin Least Sq Mean: 10.1 ng/mL
Canine myoglobin; serum, model term
  Myoglobin, mixed model Estimate, term Time[Post-run-Pre-run] * Treatment[L-carnitine]: −7.625
  Myoglobin, mixed model Estimate, term Time[Post-run-Pre-run] * Treatment[L-carnitine] * Sex[F]: −3.63
  Myoglobin, mixed model Estimate, term Time[Pre-run-Baseline] * Treatment[L-carnitine]: 0.3222
  Myoglobin, mixed model Estimate, term Time[Pre-run-Baseline] * Treatment[L-carnitine] * Sex[F]: −0.369
  Myoglobin, mixed model Estimate, term Treatment[L-carnitine]: 1.653
  Myoglobin, mixed model Estimate, term Treatment[L-carnitine] * Sex[F]: 1.582
